This assay addresses T1, PLK4 (Homo sapiens, UniProt O00444).
T1 construct: expressed in transfected cells; host or cells: HEK293 T cells (ATCC CRL-3216)
T1 sequence (O00444 1-970): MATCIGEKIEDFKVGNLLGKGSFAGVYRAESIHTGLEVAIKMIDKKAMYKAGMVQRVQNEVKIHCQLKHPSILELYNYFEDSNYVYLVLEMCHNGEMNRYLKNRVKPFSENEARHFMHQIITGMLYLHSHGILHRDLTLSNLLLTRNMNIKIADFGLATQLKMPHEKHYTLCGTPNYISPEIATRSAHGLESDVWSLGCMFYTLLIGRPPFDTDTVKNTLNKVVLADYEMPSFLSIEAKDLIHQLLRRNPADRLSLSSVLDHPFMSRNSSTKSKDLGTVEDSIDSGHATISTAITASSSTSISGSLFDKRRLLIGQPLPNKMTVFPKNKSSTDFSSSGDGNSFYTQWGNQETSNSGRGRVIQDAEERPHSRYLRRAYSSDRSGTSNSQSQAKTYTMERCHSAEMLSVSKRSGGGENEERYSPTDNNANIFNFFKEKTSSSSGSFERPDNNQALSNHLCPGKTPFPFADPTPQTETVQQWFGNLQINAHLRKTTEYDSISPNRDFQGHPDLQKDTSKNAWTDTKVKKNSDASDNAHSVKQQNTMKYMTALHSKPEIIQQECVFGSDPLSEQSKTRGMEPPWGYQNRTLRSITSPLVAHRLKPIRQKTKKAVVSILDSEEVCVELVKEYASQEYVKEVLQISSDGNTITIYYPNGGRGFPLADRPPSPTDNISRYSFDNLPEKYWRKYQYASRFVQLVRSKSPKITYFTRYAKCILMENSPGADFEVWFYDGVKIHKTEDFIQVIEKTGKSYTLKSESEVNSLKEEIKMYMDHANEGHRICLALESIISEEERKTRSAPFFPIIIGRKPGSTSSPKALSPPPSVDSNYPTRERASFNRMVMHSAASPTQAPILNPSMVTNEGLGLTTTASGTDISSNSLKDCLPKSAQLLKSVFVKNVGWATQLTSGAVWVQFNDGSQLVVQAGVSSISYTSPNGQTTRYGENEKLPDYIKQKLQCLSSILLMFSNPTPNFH
The experiment in a line: PLK4 NanoBRET target engagement assay. Type of assay: binding. To be noted: HEK293 T cells transfected with PLK4 NanoLuc fusion vector; K-5 tracer; 2 hrs incubation. The gist of the method: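 HEK293T cells transiently expressing PLK4-NanoLuc, plated at 17000 cells/well with K-5 tracer and compound, incubated 2 h at 37 °C/5% CO2. After substrate/inhibitor mix, 610/450 nm emission ratio ×1000 gave mBRET; IC50 from 4-parameter fit.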
(BRET reads energy transfer from a luciferase to a nearby fluorophore.)
A word on the IC50: it is the concentration at which inhibition is half-maximal. A higher IC50 goes with weaker potency in that assay. As for `Cc1cc(Nc2nc(N(C)c3c(F)cc(S(C)(=O)=O)cc3F)nc(-c3cn(CCF)c(C)n3)c2C2CC2)n[nH]1` [Compound 229], the IC50 came out at 3 nM. `Cc1cc(Nc2nc(N(C)c3cc(F)c(S(C)(=O)=O)cc3F)nc(-c3ccn(CCO)n3)c2C2CC2)n[nH]1` [Compound 230] had an IC50 of 26 nM. The compound `Cc1cc(Nc2nc(N(C)c3c(F)cc(S(C)(=O)=O)cc3F)nc(-c3cnn(C)c3C(N)=O)c2C2CC2)n[nH]1` [Compound 231] displayed an IC50 of 4 nM. Compound `Cc1cc(Nc2nc(N(C)c3c(F)cc(S(C)(=O)=O)cc3F)nc(N3CC(n4cccn4)C3)c2C2CC2)n[nH]1` [Compound 233] returned an IC50 of 45 nM. As to `Cc1cc(Nc2nc(N(C)c3c(F)cc(S(C)(=O)=O)cc3F)nc(-c3cn4c(n3)C(O)CC4)c2C2CC2)n[nH]1` (stereo not drawn) [Compound 234], the IC50 was 49 nM. As for `Cc1cc(Nc2nc(N(C)c3c(F)cc(S(C)(=O)=O)cc3F)nc(-n3ccccc3=O)c2C2CC2)n[nH]1` [Compound 235], the IC50 came out at 1100 nM. The compound `Cc1cc(Nc2nc(N(C)c3c(F)cc(S(C)(=O)=O)cc3F)nc(N3CC(n4ccnc4)C3)c2C2CC2)n[nH]1` [Compound 236] came in with a concentration for half-maximal inhibition (IC50) of 87 nM. As for `[2H]C([2H])([2H])OCc1nc(-c2nc(N(C)c3c(F)cc(S(C)(=O)=O)cc3F)nc(Nc3cc(C)[nH]n3)c2C2CC2)cn1C` [Compound 237], half-maximal inhibition (IC50) required 5 nM. In the case of `Cc1cc(Nc2nc(N(CCO)c3c(F)cc(S(C)(=O)=O)cc3F)nc(-c3cn(C)cn3)c2C2CC2)n[nH]1` [Compound 238] it was 34 nM; in that of `Cc1cc(Nc2nc(N(C)c3c(F)cc(S(C)(=O)=O)cc3F)nc(-c3cc4n(n3)CCOC4)c2C2CC2)n[nH]1` [Compound 240], 4 nM. Regarding `Cc1cc(Nc2nc(N(C)c3c(F)cc(S(C)(=O)=O)cc3F)nc(-c3cn(C4CC4)c(C)n3)c2C2CC2)n[nH]1` [Compound 241], the IC50 was 4 nM. Take `Cc1cc(Nc2nc(N(C)c3cc(F)c(S(C)(=O)=O)cc3F)nc(-c3cn(C4CC4)c(C)n3)c2C2CC2)n[nH]1` [Compound 242]: the IC50 turned out to be 5 nM. Turning to `Cc1cc(Nc2nc(N(C)c3cc(F)c(S(C)(=O)=O)cc3F)nc(-c3cc4n(n3)CCOC4)c2C2CC2)n[nH]1` [Compound 243], the IC50 stood at 16 nM. `COC(C)c1nc(-c2nc(N(C)c3c(F)cc(S(C)(=O)=O)cc3F)nc(Nc3cc(C)[nH]n3)c2C2CC2)cn1C` (stereo not drawn) [Compound 244] returned an IC50 of 10 nM. On to `Cc1cc(Nc2nc(N(C)c3c(F)cc(S(C)(=O)=O)cc3F)nc(-c3cc4n(C)c(=O)ccn4n3)c2C2CC2)n[nH]1` [Compound 245], for which the IC50 amounted to 5 nM. In the case of `CCN(c1nc(Nc2cc(C)[nH]n2)c(C2CC2)c(-c2cn(C)cn2)n1)c1cc(F)c(S(C)(=O)=O)cc1F` [Compound 246] it was 20 nM; in that of `Cc1cc(Nc2nc(N(C)c3cc(F)c(S(C)(=O)=O)cc3F)nc(-c3cnn(C)c3C(N)=O)c2C2CC2)n[nH]1` [Compound 248], 33 nM. In turn, `COCc1c(-c2nc(N(C)c3c(F)cc(S(C)(=O)=O)cc3F)nc(Nc3cc(C)[nH]n3)c2C2CC2)cnn1C` [Compound 249] yielded an IC50 of 2 nM. The compound `Cc1cc(Nc2nc(N(C)c3c(F)cc(S(C)(=O)=O)cc3F)nc(N3CCn4nccc4C3)c2C2CC2)n[nH]1` [Compound 250] showed a concentration for half-maximal inhibition (IC50) of 21 nM.

In turn, `Cc1cc(Nc2nc(N(C)c3c(F)cc(S(C)(=O)=O)cc3F)nc(-c3cn(C)nc3C(N)=O)c2C2CC2)n[nH]1` [Compound 251] yielded an IC50 of 310 nM. Regarding `Cc1cc(Nc2nc(N(C)c3c(F)cc(S(C)(=O)=O)cc3F)nc(-c3cn(C)nc3C(=O)N(C)C)c2C2CC2)n[nH]1` [Compound 252], the IC50 worked out at 48 nM. Compound `Cc1cc(Nc2nc(N(C)c3c(F)cc(S(C)(=O)=O)cc3F)nc(-c3cnn([C@H]4C[C@H](O)C4)c3)c2C2CC2)n[nH]1` [Compound 253] gave a 50% inhibitory concentration (IC50) of 7 nM. Regarding `Cc1cc(Nc2nc(N(C)c3c(F)cc(S(C)(=O)=O)cc3F)nc(-c3cnn([C@H]4C[C@@H](O)C4)c3)c2C2CC2)n[nH]1` [Compound 254], half-maximal inhibition (IC50) required 4 nM. In turn, `COC1CCc2ncc(-c3nc(N(C)c4c(F)cc(S(C)(=O)=O)cc4F)nc(Nc4cc(C)[nH]n4)c3C3CC3)n2C1` (stereo not drawn) [Compound 255] returned an IC50 of 2 nM. For `CN(c1nc(Nc2cc(C3CC3)[nH]n2)c(C2CC2)c(-c2cnn(C)c2C(N)=O)n1)c1c(F)cc(S(C)(=O)=O)cc1F` [Compound 256], half-maximal inhibition (IC50) required 4 nM.

As for `Cc1cc(Nc2nc(N(C)c3c(F)cc(S(C)(=O)=O)cc3F)nc(-c3cn(C4CC(O)C4)cn3)c2C2CC2)n[nH]1` (stereo not drawn) [Compound 257], the IC50 turned out to be 33 nM.

The compound `CCc1cc(Nc2nc(N(C)c3c(F)cc(S(C)(=O)=O)cc3F)nc(-c3cnn(C)c3)c2C2CC2)n[nH]1` [Compound 258] came in with a 50% inhibitory concentration (IC50) of 5 nM. The figure for `Cc1cc(Nc2nc(N(C)c3c(F)cc(S(C)(=O)=O)cc3F)nc(-c3cn(CCOC(F)(F)F)c(C)n3)c2C2CC2)n[nH]1` [Compound 259] is 7 nM; for `Cc1cc(Nc2nc(N(C)c3c(F)cc(S(C)(=O)=O)cc3F)nc(-c3cnn(C)c3C(=O)N(C)C)c2C2CC2)n[nH]1` [Compound 260] it is 5 nM. For the compound `CNC(=O)c1c(-c2nc(N(C)c3c(F)cc(S(C)(=O)=O)cc3F)nc(Nc3cc(C)[nH]n3)c2C2CC2)cnn1C` [Compound 261], half-maximal inhibition (IC50) was put at 8 nM.

Consider `Cc1cc(Nc2nc(N(C)c3c(F)cc(C(C)(C)O)cc3F)nc(-c3cn(C)cn3)c2C2CC2)n[nH]1` [Compound 262], for which half-maximal inhibition (IC50) required 18 nM.

In turn, `Cc1cc(Nc2nc(N(C)c3c(F)cc(S(C)(=O)=O)cc3F)nc(-c3cnn(C)c3C(=O)N3CCC3)c2C2CC2)n[nH]1` [Compound 263] returned an IC50 of 9 nM. On to `Cc1cc(Nc2nc(N(C)c3c(F)cc(S(C)(=O)=O)cc3F)nc(-c3cnn(C)c3C(=O)N3CC(F)(F)C3)c2C2CC2)n[nH]1` [Compound 264], for which the IC50 stood at 25 nM.

Take `CN(c1nc(Nc2cc(C3CC3)[nH]n2)c(C2CC2)c(-c2ccn(CCO)n2)n1)c1c(F)cc(S(C)(=O)=O)cc1F` [Compound 265]: half-maximal inhibition (IC50) was put at 5 nM. `Cc1cc(Nc2nc(N(C)c3c(F)cc(S(C)(=O)=O)cc3F)nc(-c3cnc4cccnn34)c2C2CC2)n[nH]1` [Compound 267] showed an IC50 of 6 nM. Compound `Cc1cc(Nc2nc(N(C)c3c(F)cc(S(C)(=O)=O)cc3F)nc(N3CC4(C3)CC(C)(O)C4)c2C2CC2)n[nH]1` [Compound 268] registered an IC50 of 48 nM.

In turn, `Cc1cc(Nc2nc(N(C)c3c(F)cc(S(C)(=O)=O)cc3F)nc(N3CCc4c(ncn4C)C3)c2C2CC2)n[nH]1` [Compound 269] registered an IC50 of 14 nM. The figure for `Cc1cc(Nc2nc(N(C)c3c(F)cc(S(C)(=O)=O)cc3F)nc(N3Cc4cnn(C)c4C3)c2C2CC2)n[nH]1` [Compound 271] is 60 nM; for `COCc1nc(-c2nc(N(C)c3c(F)cc(S(C)(=O)=O)cc3F)nc(Nc3cc(C4CC4)[nH]n3)c2C2CC2)cn1C` [Compound 272] it is 3 nM; for `CN(c1nc(Nc2cc(C3CC3)[nH]n2)c(C2CC2)c(-c2cn3c(n2)COCC3)n1)c1c(F)cc(S(C)(=O)=O)cc1F` [Compound 273] it is 2 nM.

Compound `Cc1cc(Nc2nc(N(C)c3c(F)cc(S(C)(=O)=O)cc3F)nc(-c3ncn(C)c3C(=O)N(C)C)c2C2CC2)n[nH]1` [Compound 274] registered an IC50 of 3100 nM. `COCCn1cc(-c2nc(N(C)c3c(F)cc(S(C)(=O)=O)cc3F)nc(Nc3cc(C4CC4)[nH]n3)c2C2CC2)c(C)n1` [Compound 276] had an IC50 of 4 nM. In turn, `COCCn1ncc(-c2nc(N(C)c3c(F)cc(S(C)(=O)=O)cc3F)nc(Nc3cc(C4CC4)[nH]n3)c2C2CC2)c1C` [Compound 277] showed an IC50 of 3 nM. The figure for `CN(c1nc(Nc2cc(C(F)(F)F)[nH]n2)c(C2CC2)c(-c2cnn(C)c2)n1)c1c(F)cc(S(C)(=O)=O)cc1F` [Compound 278] is 60 nM; for `CN(C)C(=O)c1c(-c2nc(N(C)c3c(F)cc(S(C)(=O)=O)cc3F)nc(Nc3cc(C4CC4)[nH]n3)c2C2CC2)cnn1C` [Compound 280] it is 1 nM; for `Cc1cc(Nc2nc(N(C)c3c(F)cc(S(C)(=O)=O)cc3F)nc(-c3nn(C)cc3C(N)=O)c2C2CC2)n[nH]1` [Compound 281] it is 340 nM.

Take `Cc1cc(Nc2nc(N(C)c3c(F)cc(S(C)(=O)=O)cc3F)nc(N3CCc4ncn(C)c4C3)c2C2CC2)n[nH]1` [Compound 282]: the midpoint of inhibition, the IC50, lay at 6 nM.

`Cc1cc(Nc2nc(N(C)c3c(F)cc(S(C)(=O)=O)cc3F)nc(-c3ncn(C)c3C)c2C2CC2)n[nH]1` [Compound 283]: the IC50 was 45 nM.
